Consider 32 molecules from USRE45173E1, “Inhibitors of CYP 17” (Novartis AG, priority 2009, dated 2014).

recombinant human CYP17 enzyme, sequence (P05093 whole entry): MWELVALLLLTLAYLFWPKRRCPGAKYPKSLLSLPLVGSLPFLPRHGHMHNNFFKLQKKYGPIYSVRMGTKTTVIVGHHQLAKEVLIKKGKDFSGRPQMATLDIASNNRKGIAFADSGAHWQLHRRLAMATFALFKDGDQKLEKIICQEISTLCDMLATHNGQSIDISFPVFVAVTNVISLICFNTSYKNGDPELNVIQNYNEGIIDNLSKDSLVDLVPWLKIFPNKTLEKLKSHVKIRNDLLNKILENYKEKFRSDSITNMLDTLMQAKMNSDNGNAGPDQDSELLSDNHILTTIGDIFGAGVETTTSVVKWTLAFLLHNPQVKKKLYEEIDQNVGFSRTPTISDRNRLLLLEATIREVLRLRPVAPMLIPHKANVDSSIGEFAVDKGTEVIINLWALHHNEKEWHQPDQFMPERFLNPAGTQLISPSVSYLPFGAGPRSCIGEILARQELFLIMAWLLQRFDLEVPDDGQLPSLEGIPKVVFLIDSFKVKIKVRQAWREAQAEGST

The first assay concerns the target recombinant human CYP17 enzyme (Homo sapiens (Human), UniProt P05093). The experiment in a line: Cytochrome P450, 17-20 lyase (CYP17-lyase) assay, tritiated acetic acid release from 17-α-hydroxy pregnenolone [21-3H]. The class given is biochemical. The note with it: human CYP17, substrate 0.25 μM; read-out: Lyase IC 50 nM Human/Rat (Human). From the text: Assay method was adopted from a published protocol with some modifications to suit our requirements (Dmitry N Grigoryev et al, Analytical Biochemistry, (1999) 267, 319-330). […] Chloroform extraction removes the radioactive steroids and acetic acid is taken into aqueous layer. The tritiated acetic acid released in the assay thus extracted is quantified to determine the enzyme activity. […] The purified cell membrane preparations were used as the source for Human CYP17 enzyme. […] O, Nijar, et al., J Med Chem, (1998) 41, 902-912). […] Km for this substrate was determined by monitoring the tritiated acetic acid release as a function of substrate concentration. […] For the Km determination, the data was fit to a hyperbolic equation (Graphpad Prism® software IV). […] (Dmitry N. Grigoryev et al, Analytical Biochemistry (1999) 267, 319-330) […] NADPH is used at a final concentration of 4.2 mM. Total reaction volume was made up to 50 μL with 50 mM Phosphate buffer pH 7.5. The reaction mixture was incubated at room temperature for 90 minutes with gentle shaking. The reaction was stopped by the addition of 100 μL of buffer. 500 μL of 5% freshly prepared activated charcoal was added to the solution and mixed well by vortexing. The samples were centrifuged at 17568×g for 5 minutes. (14000 rpm). The supernatant was carefully transferred to fresh tube and 1.3 mL of scintillation fluid was added, mixed by vortexing. The radioactivity was measured in a 1450 MicroBeta TriLux™ scintillation counter from Wallac-Perkin Elmer®, USA. The measurements were carried out in 2.0 mL Eppendorforf™ tubes. […] The amount of tritiated acetic acid released is proportional to the lyase activity. Percent lyase activity in presence of inhibitor was calculated using the formula given below. […] Enzyme reaction in presence of inhibitor. • Positive control: […] For IC50 determination, the % inhibition was plotted as a function of inhibitor concentration. The data was fitted to sigmoidal equation using Graphpad Prism® software IV to generate IC50 values.
On to `Cc1cc(-n2ccn(-c3cnccc3C)c2=O)cs1` [Example 92A, 1-(4-Methylpyridin-3-yl)-3-(5-methylthiophen-3-yl)-1H-imidazol-2(3H)-one], for which the IC50 is 21 nM.

For `COc1nccc2sc(N3CCN(c4cnccc4C)C3=O)cc12` [Example 97A, 1-(4-Methoxy-thieno[3,2-c]pyridin-2-yl)-3-(4-methyl-pyridin-3-yl)-imidazolidin-2-one], the IC50 was 356 nM. Take `Cc1ccncc1N1CCN(c2ccc3c(c2)CCO3)C1=O` [Example 51A, 1-(2,3-Dihydro-benzofuran-5-yl)-3-(4-methyl-pyridin-3-yl)-imidazolidin-2-one]: the IC50 is 14 nM. The same measure, in the same setting: then `Cc1ccncc1N1CCN(c2csc3ccccc23)C1=O` [Example 109A, 1-Benzo[b]thiophen-3-yl-3-(4-methyl-pyridin-3-yl)-imidazolidin-2-one], with 158 nM; and `Cc1ccncc1N1C(=O)N(c2ccc3ncsc3c2)C(C)C1C` (centres unmarked) [Example 175A, 1-Benzothiazol-6-yl-4,5-dimethyl-3-(4-methyl-pyridin-3-yl)-imidazolidin-2-one], with 85 nM; and `Cc1ccncc1N1C(=O)N(c2ccc3ncsc3c2)CC1(C)C` [Example 165A, 1-Benzothiazol-6-yl-4,4-dimethyl-3-(4-methyl-pyridin-3-yl)-imidazolidin-2-one], with 1150 nM. The same measure, in the same setting: then `Cc1ccncc1N1CCN(c2cnc3[nH]cnc3c2)C1=O` [Example 122A, 1-(3H-Imidazo[4,5-b]pyridin-6-yl)-3-(4-methyl-pyridin-3-yl)-imidazolidin-2-one Trifluoroacetic Acid], with 383 nM; and `Cc1ccncc1N1CCN(c2ccc3c(cnn3C)c2)C1=O` [Example 114A, 1-(1-Methyl-1H-indazol-5-yl)-3-(4-methyl-pyridin-3-yl)-imidazolidin-2-one], with 24 nM. For the molecule `CCc1cn(-c2ccc3ncsc3c2)c(=O)n1-c1cnccc1C` [Example 168A, 1-Benzothiazol-6-yl-4-ethyl-3-(4-methyl-pyridin-3-yl)-1,3-dihydro-imidazol-2-one], the IC50 amounted to 384 nM.

For `Cc1ccncc1N1CCN(c2ccc3c(c2)OC(F)(F)O3)C1=O` [Example 64A, 1-(2,2-Difluoro-benzo[1,3]dioxol-5-yl)-3-(4-methyl-pyridin-3-yl)-imidazolidin-2-one], the IC50 turned out to be 35 nM. Turning to `Cc1ccncc1N1CCN(c2cccc(C#N)c2)C1=O` [Example 106A, 3-[3-(4-Methyl-pyridin-3-yl)-2-oxo-imidazolidin-1-yl]-benzonitrile], the IC50 was 35 nM. On the same count and under the same terms, as for `COc1ccc(N2CCN(c3cnccc3C)C2=O)cc1F` [Example 53A, 1-(3-Fluoro-4-methoxy-phenyl)-3-(4-methyl-pyridin-3-yl)-imidazolidin-2-one], the figure is 136 nM. As to `Cc1ccncc1N1CCN(c2ccc3cc[nH]c3c2)C1=O` [Example 144A, 1-(1H-Indol-6-yl)-3-(4-methyl-pyridin-3-yl)-imidazolidin-2-one], the IC50 came out at 174 nM.

With `Cc1ccncc1N1CCN(c2cc3c(Cl)nccc3s2)C1=O` [Example 98A, 1-(4-chloro-thieno[3,2-c]pyridin-2-yl)-3-(4-methyl-pyridin-3-yl)-imidazolidin-2-one], the IC50 was determined as 18 nM. Same read-out and setting: then `Cc1ccncc1N1CCN(c2csc(C(F)F)c2)C1=O` [Example 78A, 1-(5-Difluoromethyl-thiophen-3-yl)-3-(4-methyl-pyridin-3-yl)-imidazolidin-2-one], with 9.3 nM.

With `Cc1ccncc1N1CCN(c2ccc3c(c2)C(C)(C)C(=O)N3CO)C1=O` [Example 147A, 1-Hydroxymethyl-3,3-dimethyl-5-[3-(4-methyl-pyridin-3-yl)-2-oxo-imidazolidin-1-yl]-1,3-dihydro-indol-2-one], the IC50 is 346 nM. Same read-out and setting: then `Cc1ccncc1N1CCN(c2ccc3oncc3c2)C1=O` [Example 113A, 1-Benzo[d]isoxazol-5-yl-3-(4-methyl-pyridin-3-yl)-imidazolidin-2-one], with 230 nM. Still for that read-out and setting: as for `Cc1ccncc1N1CCN(c2cccc(Cl)c2F)C1=O` [Example 86A, 1-(3-Chloro-2-fluoro-phenyl)-3-(4-methyl-pyridin-3-yl)-imidazolidin-2-one], the figure is 1200 nM; as for `CCc1ccncc1N1CCN(c2ccc3ncsc3c2)C1=O` [Example 159A, 1-(benzo[d]thiazol-6-yl)-3-(4-ethylpyridin-3-yl)imidazolidin-2-one], 3.4 nM; as for `Cc1ccncc1N1CCN(c2csc3ccnc(Cl)c23)C1=O` [Example 99A, 1-(4-Chloro-thieno[3,2-c]pyridin-3-yl)-3-(4-methyl-pyridin-3-yl)-imidazolidin-2-one], 22 nM. For the molecule `Cc1ccncc1N1CCN(c2ccnc(Cl)c2)C1=O` [Example 58A, 1-(2-Chloro-pyridin-4-yl)-3-(4-methyl-pyridin-3-yl)-imidazolidin-2-one], the IC50 was found to be 27 nM. On the same count and under the same terms, then `Cc1cn2cc(N3CCN(c4cnccc4C)C3=O)ccc2n1` [Example 104A], with 1990 nM; and `Cc1ccncc1N1CCN(c2ccc3c(C4CC4)n[nH]c3c2)C1=O` [Example 161A, 1-(3-Cyclopropyl-1H-indazol-6-yl)-3-(4-methylpyridin-3-yl)imidazolidin-2-one], with 82 nM; and `Cc1ccncc1N1CCN(c2ccc(Cl)cc2)C1=O` [Example 38A, 1-(4-Chloro-phenyl)-3-(4-methyl-pyridin-3-yl)-imidazolidin-2-one], with 70 nM. For `Cc1ccncc1N1CCN(c2ccc3[nH]nc(C)c3c2)C1=O` [Example 95A, 1-(3-Methyl-1H-indazol-5-yl)-3-(4-methyl-pyridin-3-yl)-imidazolidin-2-one], the IC50 was determined as 119 nM. Same read-out and setting: then `CC(=O)Nc1ccncc1N1CCN(c2ccc3ncsc3c2)C1=O` [Example 150A, N-[3-(3-Benzothiazol-6-yl-2-oxo-imidazolidin-1-yl)-pyridin-4-yl]-acetamide], with 496 nM; and `Cc1ccncc1N1CCN(c2ccn3ccnc3c2)C1=O` [Example 73A, 1-imidazolidin-2-one], with 109 nM; and `CN1CCC[C@H]1COc1ccncc1N1CCN(c2ccc3ncsc3c2)C1=O` (stereo in doubt) [Example 181A, 1-Benzothiazol-6-yl-3-[4-(1-methyl-pyrrolidin-2-ylmethoxy)-pyridin-3-yf]-imidazolidin-2-one], with 3060 nM.

Still in this assay, the particulars now being: human CYP17, substrate 0.25 μM; read-out: Lyase IC 50 Human/Rat (Human).
`Cc1ccncc1N1CCN(c2ccc3c(c2)ncn3C)C1=O` [Example 116A, 1-(1-Methyl-1H-benzoimidazol-5-yl)-3-(4-methyl-pyridin-3-yl)-trifluoroacetic Acid]: the IC50 is greater than 10000 nM. On the same count and under the same terms, then `CC(=O)Nc1ccc(N2CCN(c3cnccc3C)C2=O)cn1` [Example 75A, N-{5-[3-(4-Methyl-pyridin-3-yl)-2-oxo-imidazolidin-1-yl]-pyridin-2-yl}-acetamide], with greater than 10000 nM; and `Cc1ccncc1N1CCN(c2ccc3nn(C)cc3c2)C1=O` [Example 132A, 1-(2-Methyl-2H-indazol-5-yl)-3-(4-methyl-pyridin-3-yl)-imidazolidin-2-one], with greater than 10000 nM; and `O=C1N(c2cnc3[nH]cnc3c2)CCN1c1ccc2ncsc2c1` [Example 183A, 1-Benzothiazol-6-yl-3-(3H-imidazo[4,5-b]pyridin-6-yl)-imidazolidin-2-one], with greater than 10000 nM.
